Data taken from patent US20260274857A1, “CRYSTAL OF DIHYDROPYRIDINONE DERIVATIVE OR SOLVATE THEREOF” (Shionogi & Co., Ltd., priority 2022, published 2026).

Tests used:
[1] = Solid stability test: storage stability (amount of analogous substance by HPLC, appearance); assay type: physicochemical
Procedure: For the solid stability of the crystal of the compound represented by Formula (I) obtained in Example 1 and the crystal of the compound represented by Formula (II) obtained in Example 16, the chemical stability under temperature, temperature and humidity conditions, and light irradiation was evaluated. The proportion (%) of the analogous substance produced by an HPLC method and the change in appearance were evaluated.
About 10 mg of the crystal was accurately weighed in a 2 mL glass container with a polyethylene stopper. After the glass container was closed, the glass container was stored at 40° C. or 60° C. for 2 weeks, 1 month, 2 months, 3 months, or 6 months. A sample stored at 40° C. is referred to as a 40° C. hermetically sealed product, and a sample stored at 60° C. is referred to as a 60° C. hermetically sealed product. In a state where the glass container was opened, the glass container was stored at a relative humidity of 75±5% at 40° C. or a relative humidity of 89±5% for 2 weeks, 1 month, 2 months, 3 months or 6 months, or in the presence of silica gel at 40° C. for 1 month, 2 months, 3 months or 6 months. A sample stored at 40° C. and a relative humidity of 75±5% or 89±5% is referred to as a 40° C. and 75% relative humidity (also referred to as 40±2° C./75±5% RH) or 40° C. and 89% relative humidity (also referred to as 40±2° C./89% RH) stored product, and a sample stored in the presence of silica gel at 40° C. is referred to as a 40° C. stored product. The −40° C. hermetically sealed product was used as a standard product.
The amount of the analogous substance was measured by an area percentage method by the HPLC method under the following conditions.
HPLC Conditions 1 were used for the crystal and amorphous substance of the compound represented by Formula (I) obtained in Example 1, and HPLC conditions 2 were used for the crystal of the compound represented by Formula (II) obtained in Example 16.
• Detector: ultraviolet absorptiometer (measurement wavelength: 260 nm) • Column: YMC-Triart C18 ExRS, S-1.9 μm, 3.0×100 mm • Column temperature: constant temperature at near 40° C. • Mobile phase A: 0.1% formic acid aqueous solution • Mobile phase B: acetonitrile • Flow rate: about 0.6 mL/min • Injection amount: 3 μL • Sample cooler temperature: about 6° C. • Feed of mobile phase: The mixing ratio of mobile phase A and mobile phase B was changed as shown in Table 18 to control concentration gradient.
Column: Cortecs (2.7 μm 3.0×100 mm)
Column temperature: 40° C.
UV detection wavelength: 254 nm

[2] = Moisture adsorption/desorption isotherm measurement (DVS); assay type: physicochemical
Excerpt: The moisture adsorption/desorption isotherm measurement is a measurement method for measuring the adsorption and desorption behavior of moisture by measuring a weight change in a solid as a measurement target under each relative humidity condition.
As a basic measurement method, based on the dry weight at 0% RH (relative humidity 0%), the relative humidity is increased every 5% or 10%, and after the weight is stabilized at each relative humidity, the amount of adsorbed water can be determined from the weight increase from the reference value. Similarly, the desorption amount of water can be measured by decreasing the relative humidity every 5% or 10% from 100% RH or 95% RH.
By plotting the value of the weight change at each relative humidity, an adsorption/desorption isotherm can be obtained.
Sorption and desorption of adhesion water and crystal water are affected by particle size, crystallinity, crystal habit, and the like, so that the measurement results may slightly change.
The crystals and amorphous substances obtained in each Example were weighed in an aluminum pan, and allowed to stand at 25° C. and a relative humidity of 0%. The measurement was started after the compound was sufficiently dried and the weight was stabilized, and the weight when the relative humidity changed from 0% to 95% by 5% was recorded. Next, the weight when the relative humidity changed from 95% to 0% by 5% was recorded.
Device: DVS Advantage manufactured by Surface Measurement Systems

[3] = 40° C. Relative humidity 75%, 2 months
[4] = 40° C. hermetically sealed, 1 month
[5] = 40° C. hermetically sealed, 2 months
[6] = 40° C. hermetically sealed, 2 weeks
[7] = 60° C. hermetically sealed, 1 month
[8] = 60° C. hermetically sealed, 2 weeks
[9] = (Standard product) −40° C. hermetically sealed, 1 month
[10] = (Standard product) −40° C. hermetically sealed, 2 months

For `CS(=O)(=O)CC(=O)Nc1c2c(nn1CCCOC(F)(F)F)CC1(CCOc3cc(OCC(F)(F)F)ccc31)NC2=O` (centres unmarked) [listing 1 of 2 here], the “Amount (%) of total analogous substance” value [1, 3] was 0.68%, the “Amount (%) of total analogous substance” value [1, 4] was 0.65% and the “Amount (%) of total analogous substance” value [1, 5] was 0.66%. The “Amount (%) of total analogous substance” value [1, 6] was 0.64%, the “Amount (%) of total analogous substance” value [1, 7] was 0.85% and the “Amount (%) of total analogous substance” value [1, 8] was 0.76%. For the same compound, the “Amount (%) of total analogous substance” value [1, 9] was 0.61% and the “Amount (%) of total analogous substance” value [1, 10] was 0.62%.
With `Cc1ccc(-n2nc3c(c2NC(=O)CS(C)(=O)=O)C(=O)NC2(CCOc4cc(F)cc(F)c42)C3)nc1` (centres unmarked) the “Amount (%) of total analogous substance” value [1, 3] was 0.27%, the “Amount (%) of total analogous substance” value [1, 4] was 0.22% and the “Amount (%) of total analogous substance” value [1, 5] was 0.23%. For the same compound, the “Amount (%) of total analogous substance” value [1, 6] was 0.22%, the “Amount (%) of total analogous substance” value [1, 7] was 0.24% and the “Amount (%) of total analogous substance” value [1, 8] was 0.23%. For the same compound, the “Amount (%) of total analogous substance” value [1, 9] was 0.22% and the “Amount (%) of total analogous substance” value [1, 10] was 0.22%.
With `CS(=O)(=O)CC(=O)Nc1c2c(nn1CCCOC(F)(F)F)CC1(CCOc3cc(OCC(F)(F)F)ccc31)NC2=O` (centres unmarked) [listing 2 of 2 here] the “Moisture adsorption amount (%)” value ([2]; relative humidity 0.0%) was 0.001%, the “Moisture desorption amount (%)” value ([2]; relative humidity 0.0%) was −0.004% and the “Moisture adsorption amount (%)” value ([2]; relative humidity 5.0%) was 0.242%. For the same compound, the “Moisture desorption amount (%)” value ([2]; relative humidity 5.0%) was 0.453%, the “Moisture adsorption amount (%)” value ([2]; relative humidity 10.0%) was 0.353% and the “Moisture desorption amount (%)” value ([2]; relative humidity 10.0%) was 0.715%. The “Moisture adsorption amount (%)” value ([2]; relative humidity 15.0%) was 0.457%, the “Moisture desorption amount (%)” value ([2]; relative humidity 15.0%) was 0.916% and the “Moisture adsorption amount (%)” value ([2]; relative humidity 20.0%) was 0.556%. The “Moisture desorption amount (%)” value ([2]; relative humidity 20.0%) was 1.067%, the “Moisture adsorption amount (%)” value ([2]; relative humidity 25.0%) was 0.651% and the “Moisture desorption amount (%)” value ([2]; relative humidity 25.0%) was 1.194%. The “Moisture adsorption amount (%)” value ([2]; relative humidity 30.0%) was 0.741%, the “Moisture desorption amount (%)” value ([2]; relative humidity 30.0%) was 1.311% and the “Moisture adsorption amount (%)” value ([2]; relative humidity 35.0%) was 0.831%. For the same compound, the “Moisture desorption amount (%)” value ([2]; relative humidity 35.0%) was 1.412%, the “Moisture adsorption amount (%)” value ([2]; relative humidity 40.0%) was 0.922% and the “Moisture desorption amount (%)” value ([2]; relative humidity 40.0%) was 1.510%. The “Moisture adsorption amount (%)” value ([2]; relative humidity 45.0%) was 1.003%, the “Moisture desorption amount (%)” value ([2]; relative humidity 45.0%) was 1.601% and the “Moisture adsorption amount (%)” value ([2]; relative humidity 50.0%) was 1.096%. The “Moisture desorption amount (%)” value ([2]; relative humidity 50.0%) was 1.688%, the “Moisture adsorption amount (%)” value ([2]; relative humidity 55.0%) was 1.186% and the “Moisture desorption amount (%)” value ([2]; relative humidity 55.0%) was 1.776%. For the same compound, the “Moisture adsorption amount (%)” value ([2]; relative humidity 60.0%) was 1.285%, the “Moisture desorption amount (%)” value ([2]; relative humidity 60.0%) was 1.870% and the “Moisture adsorption amount (%)” value ([2]; relative humidity 65.0%) was 1.382%. The “Moisture desorption amount (%)” value ([2]; relative humidity 65.0%) was 1.964%, the “Moisture adsorption amount (%)” value ([2]; relative humidity 70.0%) was 1.498% and the “Moisture desorption amount (%)” value ([2]; relative humidity 70.0%) was 2.062%. For the same compound, the “Moisture adsorption amount (%)” value ([2]; relative humidity 75.0%) was 1.612%, the “Moisture desorption amount (%)” value ([2]; relative humidity 75.0%) was 2.166% and the “Moisture adsorption amount (%)” value ([2]; relative humidity 80.0%) was 1.744%. The “Moisture desorption amount (%)” value ([2]; relative humidity 80.0%) was 2.278%, the “Moisture adsorption amount (%)” value ([2]; relative humidity 85.0%) was 1.915% and the “Moisture desorption amount (%)” value ([2]; relative humidity 85.0%) was 2.398%. The “Moisture adsorption amount (%)” value ([2]; relative humidity 90.0%) was 2.168%, the “Moisture desorption amount (%)” value ([2]; relative humidity 90.0%) was 2.522% and the “Moisture adsorption amount (%)” value ([2]; relative humidity 95.0%) was 2.597%. The “Moisture desorption amount (%)” value ([2]; relative humidity 95.0%) was 2.597%.
